Legend:
[1] = tested on: microsomes from aminopyrine-induced H. tuberosus tuber tissues; assay: ECOD activity in microsomes from aminopyrine-induced tuber tissues; assay type: biochemical, Helianthus tuberosus
From the text: Gels were stained with Coomassie Blue R-250. […] The data are means ± S.D. of triplicates.
Table 1: NADPH- and cumene hydroperoxide-dependent ECOD activity in microsomes from aminopyrine-induced H. tuberosus tuber tissues and in microsomes from control and CYP76B1-transformed yeast. Immunoinhibition by anti-ECOD antibodies.

CYP76B1 [2] = target: T1, CYP76B1 (Helianthus tuberosus, UniProt O23976); assay: CYP76B1-dependent metabolism (O-/N-dealkylation) in microsomes of transformed yeast; conditions: for ECOD activity: Transformed yeast W(R); for Activity: + NADPH; for turnover of the dealkylation: for phenylureas first dealkylation
T1 sequence (O23976 1-490): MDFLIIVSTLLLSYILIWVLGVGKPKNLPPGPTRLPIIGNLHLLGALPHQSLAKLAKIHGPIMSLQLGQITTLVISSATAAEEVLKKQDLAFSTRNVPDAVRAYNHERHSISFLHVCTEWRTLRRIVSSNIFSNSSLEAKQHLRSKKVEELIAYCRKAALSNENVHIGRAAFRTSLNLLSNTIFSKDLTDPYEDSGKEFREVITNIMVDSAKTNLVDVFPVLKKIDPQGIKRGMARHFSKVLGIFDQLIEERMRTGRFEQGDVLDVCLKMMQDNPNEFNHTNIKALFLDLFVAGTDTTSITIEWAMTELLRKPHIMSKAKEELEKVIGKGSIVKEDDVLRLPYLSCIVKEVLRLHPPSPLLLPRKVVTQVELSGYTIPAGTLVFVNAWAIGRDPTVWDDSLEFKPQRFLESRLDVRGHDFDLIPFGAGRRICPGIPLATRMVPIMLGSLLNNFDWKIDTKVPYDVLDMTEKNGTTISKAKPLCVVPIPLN
Procedure: BamHI and EcoRI sites were introduced by PCR just upstream of the ATG and downstream of the stop codon of the CYP76B1 coding sequence, using the primers 5′-[…] (sense) 5′-[…] (reverse) (SEQ ID NO 3 and SEQ ID NO 4 respectively). The PCR mixture was preheated for 2 min at 92° C. before addition of 1 unit of Pfu DNA polymerase (Stratagene). After 3 min additional heating at 92° C., 30 cycles of amplification were carried out as follows 1 min denaturation at 92° C., 1 min annealing at 52° C., 2 min extension at 72° C. The reaction was completed by 10 min extension at 72° C. After BamHI/EcoRI digestion, the 1470 bp coding sequence was inserted into the vector pYeDP60 (32). Transformation of Saccharomyces cerevisiae W(R), WAT11 and WAT21, and yeast growth were conducted according to Pompon et al. (32). Yeast microsomes were prepared as described in Pierrel et al. (33) with addition of 1% SAB, 2 mM β-mercaptoethanol, 10 mM sodium disulfite and 1 mM PMSF to the extraction buffer. When indicated, 0.5 mM δ-aminolevulinic acid methyl ester (Sigma) was added to the induction medium, or cells were stored at 4° C. for 24 h before preparation of the microsomes.
(§1) Spectrophotometric measurements of P450 content and substrate binding were performed as in (Gabriac et al., 1991) and SDS-PAGE was performed as in Gabriac et al. (34). Gels were stained with Coomassie Blue R-250. Alkoxycoumarins and alkoxyresorufins O-dealkylation was measured by fluorometry (Werck-Reichhart et al., 1990). The data are means ± S.D. of triplicates.
The conversion of other molecules was assayed by TLC or HPLC analysis of polar metabolites formed from radiolabeled compounds (Cabello-Hurtado et al., 1998a, b). NADPH-cytochrome c reductase was assayed according to (Benveniste et al., 1986). Kinetic data were fitted using the nonlinear regression program […] (Duggleby, 1984).
10 μL of non-immune serum or of serum raised against purified ECOD fraction were preincubated 2 min at room temperature with 10 μL of microsomes before addition of the reaction mix. n.d.: not detectable.
Conversion was estimated from the sum of the two polar metabolites detected after TLC analysis. Data are means + S.D. of two to four determinations. n.d.: not detected.
CYP76B1 concentrations in the MCOD, ECOD, MROD and EROD fluorometric assays were 1.5 nM or 2.1 nM, depending on the coexpressed ATR1 or yeast reductases. In the CTUDM assays, CYP76B1 concentrations were 1.7 nM (ATR1) and 8 nM (yeast), respectively. It was 12 nM for the determination of the catalytic parameters of monodemethyl-CTUDM, and 1.7 nM (ATR1) or 20 nM (yeast) in the IPUDM assays. Products were quantified by direct TLC analysis of 100 μL of the acidified incubation medium after 6 min incubation at 30° C. for the CTUDM and IPUDM assays, and after 9 min incubation for the monodemethyl-CTUDM.

control yeast microsomes = assay: Metabolism in control yeast microsomes (void plasmid pYeDP60); assay type: biochemical, Saccharomyces cerevisiae; conditions: NADPH
CYP73A1 = target: T2, CYP73A1 (Helianthus tuberosus, UniProt Q04468); conditions: chlortoluron hydroxylation; cited from earlier work
T2 construct: host or cells: yeast-expressed, according to b197
T2 sequence (Q04468 1-505): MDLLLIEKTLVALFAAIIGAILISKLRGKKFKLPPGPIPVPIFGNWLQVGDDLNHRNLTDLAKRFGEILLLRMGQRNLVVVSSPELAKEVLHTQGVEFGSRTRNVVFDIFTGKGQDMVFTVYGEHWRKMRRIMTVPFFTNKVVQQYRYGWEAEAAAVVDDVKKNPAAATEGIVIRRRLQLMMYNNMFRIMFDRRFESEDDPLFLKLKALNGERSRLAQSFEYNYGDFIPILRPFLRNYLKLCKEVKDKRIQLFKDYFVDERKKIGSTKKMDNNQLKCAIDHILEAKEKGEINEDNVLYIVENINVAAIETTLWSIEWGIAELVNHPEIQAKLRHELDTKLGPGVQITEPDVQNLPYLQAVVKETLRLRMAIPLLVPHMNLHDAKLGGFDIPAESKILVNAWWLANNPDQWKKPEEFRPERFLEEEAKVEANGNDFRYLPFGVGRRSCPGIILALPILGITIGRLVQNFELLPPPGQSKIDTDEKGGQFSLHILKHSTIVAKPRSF

CYP76B1 [3] = target: T1, CYP76B1; assay: biochemical
Procedure: as §1
The binding of substrates into the catalytic site of a P450 usually induces a shift of its maximum of absorbance, redox potential and iron spin state (Raag and Poulos, 1989) resulting from the displacement of the water sixth ligand of the heme iron. It is easily detected by differential spectrophotometry as a so-called type I spectrum with a peak at 390 nm and a trough at 420 nm (Jefcoate, 1978). The variation of the differential absorbance ΔA390-420 versus substrate concentration allows the calculation of an apparent dissociation constant (Ks). A high ΔAmax induced by the ligand is usually an indication of correct positioning for catalysis.
CYP76B1 was 60 nM in the assays. Difference spectra were recorded after the addition of increasing concentrations of ligands to the sample cuvette. An equal volume of the herbicide solvent (DMSO) was added to the reference. Ks and ΔAmax at saturating ligand concentration were calculated from the double-reciprocal plots of ΔA(390-420 nm) versus substrate concentrations.

[4] = tested on: cotton seedling hypocotyl microsomes; conditions: read-out: Km for demethylation; cited from earlier work
CYP76B1 transcripts [5] = tested on: CYP76B1 transcripts
[6] = tested on: 7-methoxyresorufin O-dealkylase activity; assay: Induction of 7-methoxyresorufin O-demethylase activity in tuber slices; assay type: cell-based, Helianthus tuberosus; conditions: 48 hours of treatment
Procedure: Slices of dormant tuber of Helianthus tuberosus were placed under survival conditions in oxygenated distilled water and stirred with a current of compressed air in the presence of various metals or organic compounds (effectors).
A control was performed with DMSO alone.

CYP76B1 transcripts [7] = conditions: tuber tissues aged 48 h with the chemical
[8] = substrate: CCOc1ccc2ccc(=O)oc2c1; assay: purified protein, by the assay type
[9] = substrate: CCOc1ccc2nc3ccc(=O)cc-3oc2c1; assay: purified protein, by the assay type; conditions: other: coexpressed yeast reductase (W(R))
[10] = substrate: COc1ccc2ccc(=O)oc2c1; assay: purified protein, by the assay type
[11] = substrate: Cc1ccc(NC(=O)N(C)C)cc1Cl; assay: purified protein, by the assay type
[12] = substrate: CC(C)c1ccc(NC(=O)N(C)C)cc1; assay: purified protein, by the assay type
[13] = 50 μM NADPH, 400 μM 7-ethoxycoumarin
[14] = other: coexpressed reductase ATR1 (WAT11)
[15] = other: coexpressed yeast reductase (W(R))

CCOc1ccc2ccc(=O)oc2c1 [7-ethoxycoumarin]
ECOD activity [1, 13]: 5.2 ± 0.1 pkat · mg^−1 protein | ECOD activity ([1]; 125 μM cumene hydroperoxide): 2.5 ± 0.09 pkat · mg^−1 protein | ECOD activity ([1]; NADPH + anti-ECOD antibodies): 2.6 ± 0.1 pkat · mg^−1 protein | Vmax (CYP76B1 [2]; ECOD, W(R) yeast microsomes, NADPH): 600 pkat.pmole^−1 P450 | ECOD activity (CYP76B1 [2]; [13]): 8.4 ± 0.05 pkat · mg^−1 protein | ECOD activity (CYP76B1 [2]; 125 μM cumene hydroperoxide): no activity | ECOD activity (CYP76B1 [2]; NADPH + anti-ECOD antibodies): 7.5 ± 0.2 pkat · mg^−1 protein | Activity (CYP76B1 [2]; W(R) strain): 8.4 pkat mg-1 protein | turnover of the dealkylation (CYP76B1 [2]; W(R) strain): 10 min⁻¹ | Activity (CYP76B1 [2]; WAT11 strain): 15.9 pkat mg-1 protein | turnover of the dealkylation (CYP76B1 [2]; WAT11 strain): 30 min⁻¹ | ECOD activity (control yeast microsomes): No activity

Cc1ccc(NC(=O)N(C)C)cc1Cl [Chlortoluron, N-(3-chloro-p-tolyl)-N′,N′-dimethylurea]
Activity (CYP76B1 [2]; W(R) strain): 1223 pkat mg-1 protein | turnover of the dealkylation (CYP76B1 [2]; W(R) strain): about 376 min^−1 | Activity (CYP76B1 [2]; WAT11 strain): 4258 pkat mg-1 protein | turnover of the dealkylation (CYP76B1 [2]; WAT11 strain): 803 min⁻¹ | Kcat (CYP76B1 [2]; coexpressed reductase ATR1 (WAT11)): 13.4 s⁻¹ | Kcat (CYP76B1 [2]; coexpressed yeast reductase (W(R))): 6.27 s⁻¹ | kCat of the second demethylation (CYP76B1 [2]; second demethylation, slow step for complete detoxification): 0.767 s⁻¹ | reaction turnover (hydroxylation) (CYP73A1): 0.014 min⁻¹ | Kd (CYP76B1 [3]): 24 µM | ΔAmax × 10^−3 (CYP76B1 [3]; CYP76B1 60 nM, at saturating ligand concentration): 5.1 × 10^−3

CN(C)C(=O)Nc1ccc(Cl)c(Cl)c1 [Diuron]
Km [4]: 15 µM | Kd (CYP76B1 [3]): 20 µM

Cc1c(N(C)C)c(=O)n(-c2ccccc2)n1C [aminopyrine]
fold more transcripts coding for CYP76B1 than for CYP73A1 or CYP81B1 (CYP76B1 transcripts [5]): 2 to 6 fold | induction of 7-methoxyresorufin O-dealkylase activity [6]: very strongly induced

[Cl][Mn][Cl] [manganese, MnCl2]
fold more transcripts coding for CYP76B1 than for CYP73A1 or CYP81B1 (CYP76B1 transcripts [5]): 2 to 6 fold | induction of 7-methoxyresorufin O-dealkylase activity [6]: very strongly induced

CCC1(c2ccccc2)C(=O)NC(=O)NC1=O.[Na] [phenobarbital, 5-ethyl-5-phenyl-barbituric acid, sodium salt]
effect on CYP76B1 mRNA accumulation / expression (CYP76B1 transcripts [7]): strongly induced | level of CYP76B1 transcripts relative to the control (CYP76B1 transcripts [7]): 6 × | induction of 7-methoxyresorufin O-dealkylase activity [6]: very strongly induced

B1: CYP76B1 (Helianthus tuberosus) (protein)
chain: T1 sequence (O23976 1-490)
Km [8, 14]: 60 µM | kcat [8, 14]: 0.5 s⁻¹ | kcat/Km [8, 14]: 8330 M⁻¹ s⁻¹ | Km [8, 15]: 74 µM | kcat [8, 15]: 0.167 s⁻¹ | kcat/Km [8, 15]: 2170 M⁻¹ s⁻¹ | Km [9]: 0.49 µM | kcat [9]: 0.1 s⁻¹ | kcat/Km [9]: 200000 M⁻¹ s⁻¹ | Km [10, 14]: 808 µM | kcat [10, 14]: 0.517 s⁻¹ | kcat/Km [10, 14]: 667 M⁻¹ s⁻¹ | Km [10, 15]: 899 µM | kcat [10, 15]: 0.217 s⁻¹ | kcat/Km [10, 15]: 167 M⁻¹ s⁻¹ | Km [11, 14]: 179 µM | Km [11, 15]: 202 µM | Km [12, 14]: 289 µM | Km [12, 15]: 361 µM
